In patent US20090012067A1, “Modulation of Hypothalamic Atp-Sensitive Potassium Channels” (priority 2005, published 2009):

Key:
[1] = target: T1, hypothalamic insulin receptors (Rattus norvegicus, UniProt P15127); assay: ICV insulin in rats with hepatic branch vagotomy (HV), sham operation or vagal deafferentation, pancreatic-insulin clamp (1 mU/kg·min); format: in vivo, Sprague-Dawley rats
T1 construct: Paired groups of SHAM and HV rats received an ICV infusion of either insulin or vehicle; from tissue; host or cells: CNS / hypothalamus of living Sprague-Dawley rats (ICV infusion)
Text: Animal preparation for the in vivo experiments. Rats. Eighty-nine 10-week-old male Sprague-Dawley rats (Charles River Breeding Laboratories, Wilmington, Mass.) were studied. Rats were housed in individual cages and subjected to a standard light-dark cycle. Three weeks prior to the in vivo studies, chronic catheters were implanted in the third cerebral ventricle (Obici et al., 2003; Liu et al., 1998) or intrahypothalamically (Morton et al., 2003) (IH) by stereotaxic surgery.
(§1) In vivo studies. For the studies in rats, the metabolic experiments were performed ˜3 weeks after stereotaxic surgery following complete recovery from the operation (FIG. 5). All solutions were diluted with artificial cerebral spinal fluid (aCSF). […] Euglycemic-hyperinsulinemic clamps in conscious, unrestrained, catheterized mice were performed for 90 min as previously described (Obici et al., 2003; Liu et al., 1998).
(§2) Selective hepatic branch vagotomy. One week before the clamp procedure a subgroup of rats underwent selective hepatic vagotomy (HV) or sham operation (SHAM). Anatomical nerve transactions was verified in each rat at sacrifice by microscopic observation of the absence of vagal nerve fibers in between the two silk sutures that had been placed along the trunk at the time of transection (la Fleur et al., 2003).
Selective vagal deafferentation. Nerve transection was performed as previously described, according to the methods of Norgren and Smith (Norgren & Smith, 1998).
(§3) Hepatic glucose fluxes. Rate of hepatic glucose fluxes was determined as described. Barzilai et al., 1997).

[2] = test system: hypothalamic KATP channels; assay: ICV infusion of insulin, KATP channel blocker (glibenclamide) or both with pancreatic-insulin clamp (1 mU/kg·min); format: in vivo, Sprague-Dawley rats; conditions: for Direct: ICV infusion, direct pathway; for glucose infusion needed to prevent hypoglycemia: near basal circulating insulin levels
Text: Animal preparation for the in vivo experiments. Rats. Eighty-nine 10-week-old male Sprague-Dawley rats (Charles River Breeding Laboratories, Wilmington, Mass.) were studied. Rats were housed in individual cages and subjected to a standard light-dark cycle. Three weeks prior to the in vivo studies, chronic catheters were implanted in the third cerebral ventricle (Obici et al., 2003; Liu et al., 1998) or intrahypothalamically (Morton et al., 2003) (IH) by stereotaxic surgery. […] In vivo studies. For the studies in rats, the metabolic experiments were performed ˜3 weeks after stereotaxic surgery following complete recovery from the operation (FIG. 5). All solutions were diluted with artificial cerebral spinal fluid (aCSF). […] Euglycemic-hyperinsulinemic clamps in conscious, unrestrained, catheterized mice were performed for 90 min as previously described (Obici et al., 2003; Liu et al., 1998). Hepatic glucose fluxes. Rate of hepatic glucose fluxes was determined as described. Barzilai et al., 1997).

G6Pase = assay: liver G6Pase mRNA by real-time PCR after the infusions; format: in vivo, Sprague-Dawley rats
Text: (§4) Gene expression. Gluconeogenic enzymes. Quantitative analysis of gene expression was done using RT-PCR. Total RNA was isolated with Trizol (Invitrogen) and single-strand cDNA was synthesized with a kit provided by Invitrogen. Real-time PCR reactions and the primers for G6Pase and PEPCK were done as described (Pocai et al., in press). The copy number of each transcript was derived from a standard curve of cloned target templates. Expression of each transcript was normalized to copy number for 18s ribosomal protein.

[3] = test system: hypothalamic KATP channels; assay: central infusion in rats on a high fat diet for three days (hepatic insulin resistance), glucose production; format: in vivo; conditions: plasma insulin 20 μU/ml
Method: Additional experiments were also performed in rats maintained on a high fat diet regimen for three days.

[4] = test system: hepatic glucose production; assay: pancreatic-hyperinsulinemic clamp (insulin 3 mU/kg·min) in SHAM and HV rats; format: in vivo, Sprague-Dawley rats; conditions: for suppression of GP (glucose production): hyperinsulinemia ~3-fold over basal; for Direct / % Indirect: systemic insulin (3 mU); for Direct: direct pathway; for % Indirect: indirect pathway
Method: Panel A is a schematic representation of the pancreatic-hyperinsulinemic clamp procedure. At t=120 an infusion of labeled glucose was initiated and maintained for the remaining 4 hours of the study and a pancreatic hyperinsulinemic clamp was initiated at t=240 min and lasted for 2 hours. […] The figure is a longitudinal view of a rat brain, with olfactory bulb at the anterior end on the left and the caudal hindbrain on the right.
as §1, §2, §3

PEPCK = assay: liver PEPCK mRNA by real-time PCR after the infusions; format: in vivo, Sprague-Dawley rats
Text: as §4

[5] = test system: KATP channels within the medial hypothalamus; assay: Intrahypothalamic (IH) infusion of diazoxide or insulin with pancreatic-insulin clamp; format: in vivo, Sprague-Dawley rats; conditions: for rate of glucose infusion required to prevent hypoglycemia: IH infusion during a pancreatic clamp, vs vehicle; for blood glucose levels / GP (glucose production): IH infusion; for blood glucose levels: bilateral, medial hypothalamus, total dose insulin 2 μU; for GP (glucose production): basal circulating insulin
Text: Animal preparation for the in vivo experiments. Rats. Eighty-nine 10-week-old male Sprague-Dawley rats (Charles River Breeding Laboratories, Wilmington, Mass.) were studied. Rats were housed in individual cages and subjected to a standard light-dark cycle. Three weeks prior to the in vivo studies, chronic catheters were implanted in the third cerebral ventricle (Obici et al., 2003; Liu et al., 1998) or intrahypothalamically (Morton et al., 2003) (IH) by stereotaxic surgery. One week before the pancreatic-insulin clamp protocols, rats received additional catheters in the right internal jugular and left carotid artery (FIG. 5) (Obici et al., 2003; Liu et al., 1998). In vivo studies. For the studies in rats, the metabolic experiments were performed ˜3 weeks after stereotaxic surgery following complete recovery from the operation (FIG. 5). All solutions were diluted with artificial cerebral spinal fluid (aCSF). […] Pancreatic-insulin clamp studies were performed as previously described (Liu et al., 1998). Euglycemic-hyperinsulinemic clamps in conscious, unrestrained, catheterized mice were performed for 90 min as previously described (Obici et al., 2003; Liu et al., 1998).

central KATP channels = assay: ICV infusion of diazoxide with pancreatic-insulin clamp (1 mU/kg·min) in conscious rats; format: in vivo, Sprague-Dawley rats
Text: Animal preparation for the in vivo experiments. Rats. Eighty-nine 10-week-old male Sprague-Dawley rats (Charles River Breeding Laboratories, Wilmington, Mass.) were studied. Rats were housed in individual cages and subjected to a standard light-dark cycle. Three weeks prior to the in vivo studies, chronic catheters were implanted in the third cerebral ventricle (Obici et al., 2003; Liu et al., 1998) or intrahypothalamically (Morton et al., 2003) (IH) by stereotaxic surgery. One week before the pancreatic-insulin clamp protocols, rats received additional catheters in the right internal jugular and left carotid artery (FIG. 5) (Obici et al., 2003; Liu et al., 1998). In vivo studies. For the studies in rats, the metabolic experiments were performed ˜3 weeks after stereotaxic surgery following complete recovery from the operation (FIG. 5). All solutions were diluted with artificial cerebral spinal fluid (aCSF). […] Pancreatic-insulin clamp studies were performed as previously described (Liu et al., 1998). Euglycemic-hyperinsulinemic clamps in conscious, unrestrained, catheterized mice were performed for 90 min as previously described (Obici et al., 2003; Liu et al., 1998). Hepatic glucose fluxes. Rate of hepatic glucose fluxes was determined as described. Barzilai et al., 1997).

[6] = selective vagal deafferentation, ability of central insulin not altered
[7] = ICV insulin with or without KATP channel blocker

T1 sequence (P15127 27-759 limits assumed): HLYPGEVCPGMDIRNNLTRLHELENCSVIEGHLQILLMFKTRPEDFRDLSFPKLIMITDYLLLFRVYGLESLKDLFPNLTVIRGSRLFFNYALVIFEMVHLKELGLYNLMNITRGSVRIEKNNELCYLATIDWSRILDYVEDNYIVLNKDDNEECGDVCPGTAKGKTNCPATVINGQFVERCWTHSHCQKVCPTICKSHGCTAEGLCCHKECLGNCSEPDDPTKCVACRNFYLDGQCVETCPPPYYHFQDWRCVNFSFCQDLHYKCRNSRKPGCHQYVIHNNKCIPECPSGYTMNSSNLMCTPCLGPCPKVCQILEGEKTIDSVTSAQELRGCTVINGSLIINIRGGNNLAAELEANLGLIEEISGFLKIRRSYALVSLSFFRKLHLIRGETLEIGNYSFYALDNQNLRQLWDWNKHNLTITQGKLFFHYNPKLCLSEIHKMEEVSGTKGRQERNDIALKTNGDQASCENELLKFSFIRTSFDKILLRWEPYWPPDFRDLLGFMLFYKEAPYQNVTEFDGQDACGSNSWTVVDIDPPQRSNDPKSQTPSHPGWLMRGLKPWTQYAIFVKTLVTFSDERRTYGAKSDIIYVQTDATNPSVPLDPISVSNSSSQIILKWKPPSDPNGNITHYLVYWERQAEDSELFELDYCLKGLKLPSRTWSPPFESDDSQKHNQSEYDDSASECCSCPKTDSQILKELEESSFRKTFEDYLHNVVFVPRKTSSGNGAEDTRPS
T1 sequence (P15127 764-1383 partner limits assumed): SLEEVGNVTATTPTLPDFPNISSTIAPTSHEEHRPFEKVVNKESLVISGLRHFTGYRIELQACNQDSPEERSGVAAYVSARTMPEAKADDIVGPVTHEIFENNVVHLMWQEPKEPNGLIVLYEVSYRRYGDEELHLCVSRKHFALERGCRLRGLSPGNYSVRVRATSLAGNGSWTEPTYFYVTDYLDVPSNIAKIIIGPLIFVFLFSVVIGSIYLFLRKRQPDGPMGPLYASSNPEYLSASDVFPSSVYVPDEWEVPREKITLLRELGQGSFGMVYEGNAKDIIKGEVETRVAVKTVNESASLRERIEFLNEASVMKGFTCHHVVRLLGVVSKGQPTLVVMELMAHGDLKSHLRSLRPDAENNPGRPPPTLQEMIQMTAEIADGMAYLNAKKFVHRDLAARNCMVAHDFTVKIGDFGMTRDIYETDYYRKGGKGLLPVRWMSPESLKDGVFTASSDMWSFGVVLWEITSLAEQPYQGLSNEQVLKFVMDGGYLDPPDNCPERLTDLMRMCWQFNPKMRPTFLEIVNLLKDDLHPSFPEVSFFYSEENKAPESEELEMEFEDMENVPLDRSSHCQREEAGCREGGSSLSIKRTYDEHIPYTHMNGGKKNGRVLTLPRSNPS

Q: Which “^14C-PEP” value ([1]; HV, ICV) does the source give for insulin here?
A: The value was 5.5 ± 1.4 dpm/nmol.

Q: And the “glucose infusion needed to prevent hypoglycemia” value (shortened to “glucose infusion needed”) ([1]; HV, ICV insulin)?
A: Its value is “not in the HV rats”.

Q: And the hepatic glucose fluxes ([1]; HV, ICV insulin)?
A: The hepatic glucose fluxes was “failed to affect hepatic glucose fluxes”.

Q: And the “^3H-Glucose Plasma SA” value ([1]; SHAM, ICV)?
A: The value was 43.1 ± 1.9 dpm/nmol.

Q: And the “^3H-UDPglucose Liver SA” value ([1]; SHAM, ICV)?
A: Its value is 5.5 ± 0.5 dpm/nmol.

Q: And the gluconeogenesis ([1]; SHAM, ICV insulin)?
A: Its gluconeogenesis is “marked inhibition of gluconeogenesis”.

Q: What about the “glucose infusion needed” value ([1]; SHAM, ICV insulin) of the same compound?
A: Its value is “glucose infusion was required to prevent hypoglycemia”.

Q: And the “in vivo flux through G6Pase” value ([1]; SHAM, ICV insulin)?
A: The value was “markedly decreased”.

Q: And the Direct ([1]; SHAM, ICV, direct pathway)?
A: Its Direct is 12.1 ± 0.7%.

Q: What about the “rate of glucose uptake” value ([1]; either SHAM or HV rats, ICV) of the same compound?
A: The value was “not significantly affected”.

Q: What about the “GP (glucose production)” value [1, 6] of the same compound?
A: The value was “suppress GP”.

Q: And the blood glucose levels [1, 6]?
A: Its blood glucose levels is “lower blood glucose levels”.

Q: What about the “in vivo flux through G6Pase” value ([2]; ICV) of the same compound?
A: The value was “markedly decreased”.

Q: What about the Direct [2] of the same compound?
A: Its Direct is 12.1 ± 0.7%.

Q: What about the “decrease in GP (glucose production)” value ([2]; ICV insulin 30 μU, basal and equal insulin levels (~20 μU/ml)) of the same compound?
A: Its value is 52±8%.

Q: And the “glucose infusion needed” value ([2]; ICV)?
A: The value was “glucose infusion was required to prevent hypoglycemia”.

Q: What about the “rate of glucose disposal (uptake)” value ([2]; ICV, pancreatic-insulin clamp) of the same compound?
A: Its value is “not significantly affected”.

Q: What about the “liver G6Pase mRNA levels” value (G6Pase; [7]) of the same compound?
A: The value was “marked KATP channels dependent decreases”.

Q: What about the “liver G6Pase mRNA levels” value (G6Pase; SHAM, ICV insulin) of the same compound?
A: Its value is “marked decrease”.

Q: What about the glucose production ([3]; central administration) of the same compound?
A: Its glucose production is “failed to significantly inhibit glucose production”.

Q: And the Glucose ([4]; HV, Clamp, systemic insulin 3 mU/Kg·min)?
A: The Glucose was 8.1 ± 0.5 mM.

Q: What about the “suppression of GP (glucose production)” value ([4]; HV) of the same compound?
A: Its value is 38±11%.

Q: What about the Direct ([4]; HV) of the same compound?
A: Its Direct is 22.0 ± 2.3%.

Q: What about the “% Indirect” value ([4]; HV) of the same compound?
A: The value was 60.7 ± 9.4 %.

Q: And the “suppression of GP (glucose production)” value ([4]; SHAM)?
A: The value was 80±8%.

Q: And the Direct ([4]; SHAM)?
A: The Direct was 22.8 ± 3.9%.

Q: What about the “% Indirect” value ([4]; SHAM) of the same compound?
A: Its value is 34.5 ± 6.7%.

Q: What about the “liver PEPCK mRNA levels” value (PEPCK; HV, ICV insulin) of the same compound?
A: Its value is “not in HV rats”.

Q: What about the “liver PEPCK mRNA levels” value (PEPCK; [7]) of the same compound?
A: The value was “marked KATP channels dependent decreases”.

Q: What about the “liver PEPCK mRNA levels” value (PEPCK; SHAM, ICV insulin) of the same compound?
A: The value was “marked decrease”.

Q: And the “rate of glucose infusion required to prevent hypoglycemia” value [5]?
A: Its value is “significant increases”.

Q: What about the blood glucose levels [5] of the same compound?
A: Its blood glucose levels is “reproduced the potent effects of ICV insulin or diazoxide”.

Q: What about the “GP (glucose production)” value [5] of the same compound?
A: The value was “reproduced the potent effects of ICV insulin or diazoxide”.

Q: For COc1ccc(Cl)cc1C(=O)NCCc1ccc(S(=O)(=O)NC(=O)NC2CCCCC2)cc1 [glibenclamide, 5-Chloro-N-[2-[4-(3-cyclohexylureidosulfonyl)phenyl]-ethyl]-2-methoxybenzamide, reference compound], which Direct [2] is on record?
A: Its Direct is 18.5 ± 2.8%.

Q: What about the “GP (glucose production)” value ([2]; ICV, blocker alone or co-infused with insulin) of the same compound?
A: The value was “did not per se affect GP”.

Q: What about the “glucose infusion needed” value ([2]; ICV) of the same compound?
A: The value was “did not modify the rate of glucose infusion”.

Q: For CC1=NS(=O)(=O)c2cc(Cl)ccc2N1 [diazoxide, reference compound], which glucose cycling (central KATP channels; ICV) is on record?
A: The glucose cycling was “significantly reduced”.

Q: What about the “in vivo flux through G6Pase” value (central KATP channels; ICV) of the same compound?
A: Its value is “decreased the flux through G6Pase”.

Q: And the Direct (central KATP channels; ICV infusion, direct pathway)?
A: The Direct was 14.37 ± 2.2%.

Q: And the “decrease in GP (glucose production)” value (central KATP channels; ICV, 1.5 nmol, basal insulin levels (~20 μU/ml))?
A: The value was 45±4%.

Q: And the “glucose infusion needed” value (central KATP channels; ICV, basal circulating insulin levels)?
A: The value was “glucose infusion was required to prevent hypoglycemia”.

Q: What about the “liver G6Pase mRNA levels” value (G6Pase; ICV diazoxide study) of the same compound?
A: Its value is “markedly decreased”.

Q: What about the “inhibition of glucose production” value ([3]; ICV or intrahypothalamic infusion) of the same compound?
A: Its value is about 45%.

Q: And the “liver PEPCK mRNA levels” value (PEPCK; ICV diazoxide study)?
A: The value was “markedly decreased”.

Q: What about the “rate of glucose infusion required to prevent hypoglycemia” value [5] of the same compound?
A: Its value is “significant increases”.

Q: And the blood glucose levels [5]?
A: Its blood glucose levels is “lowered blood glucose levels”.

Q: And the “GP (glucose production)” value [5]?
A: Its value is “marked suppression of GP”.
